Reference: PubChem BioAssay AID256 (DTP/NCI, 2004)
Toxic doses and inconclusive results are not listed. How the source made its calls: active means survival T/C of 150% or more; inactive means T/C below 125% in these data.

Tested on: CD2F1 mice, L1210 leukemia ip, survival T/C
Experiment: NCI In Vivo Anticancer Drug Screen. Data for tumor model L1210 Leukemia (intraperitoneal) in CD2F1 (CDF1) mice
Conditions: endpoint: mean survival time, higher = longer survival
Method: The antitumor activity of compounds was measured in mice bearing transplantable tumors. Survival or tumor size were measured and the results are expressed as the measurement made in the treated group (T) divided by the measurement made in the vehicle treated control group (C). The tumor model used in this assay is L1210 Leukemia (intraperitoneal) in CD2F1 (CDF1) mice

[1] = dose: 100.0 mg/kg/injection, schedule: Q04DX002 (ip), vehicle: saline with Tween-80
[2] = dose: 200.0 mg/kg/injection, schedule: Q04DX002 (ip), vehicle: saline with Tween-80
[3] = dose: 400.0 mg/kg/injection, schedule: Q04DX002 (ip), vehicle: saline with Tween-80
[4] = dose: 200.0 mg/kg/injection, schedule: Q01DX009 (ip), vehicle: saline with Tween-80
[5] = dose: 400.0 mg/kg/injection, schedule: Q01DX009 (ip), vehicle: saline with Tween-80

Measured: T/C

CC([NH-])C[NH-].[Cl][Pt+2][Cl] (stereo unspecified)
inactive: dose: 0.31 mg/kg/injection, schedule: Q01DX009 (ip), vehicle: saline with Tween-80 105 % of control | dose: 0.62 mg/kg/injection, schedule: Q01DX009 (ip), vehicle: saline with Tween-80 107 % of control | dose: 1.25 mg/kg/injection, schedule: Q01DX009 (ip), vehicle: saline with Tween-80 112 % of control | dose: 2.5 mg/kg/injection, schedule: Q01DX009 (ip), vehicle: saline with Tween-80 105 % of control | dose: 2.5 mg/kg/injection, schedule: Q04DX003 (ip), vehicle: saline with Tween-80 115 % of control | dose: 5.0 mg/kg/injection, schedule: Q01DX009 (ip), vehicle: saline with Tween-80 86 % of control | dose: 5.0 mg/kg/injection, schedule: Q04DX003 (ip), vehicle: saline with Tween-80 115 % of control

FC1CC=C(S)CC1 (stereo unspecified)
inactive: dose: 5.0 mg/kg/injection, schedule: Q01DX001 (ip), vehicle: saline 100 % of control | dose: 10.0 mg/kg/injection, schedule: Q01DX001 (ip), vehicle: saline 106 % of control | dose: 20.0 mg/kg/injection, schedule: Q01DX001 (ip), vehicle: saline 103 % of control | dose: 40.0 mg/kg/injection, schedule: Q01DX001 (ip), vehicle: saline 100 % of control | dose: 80.0 mg/kg/injection, schedule: Q01DX001 (ip), vehicle: saline 102 % of control

O=C(O)CCc1nc(-c2cccc(Br)c2)n[nH]1
inactive: [1] 96 % of control | [2] 107 % of control | [3] 103 % of control

COc1ccc(NC(=O)Nc2cc(Cl)ccc2Cl)cc1
inactive: [4] 88 % of control | [5] 100 % of control

CCOc1cccc(Cc2cn(Cc3ccc(NC(=O)c4cccc(S(=O)(=O)F)c4)cc3)c(=O)[nH]c2=O)c1
inactive: dose: 75.0 mg/kg/injection, schedule: Q01DX001 (ip), vehicle: saline with Tween-80 94 % of control | dose: 150.0 mg/kg/injection, schedule: Q01DX001 (ip), vehicle: saline with Tween-80 89 % of control | dose: 300.0 mg/kg/injection, schedule: Q01DX001 (ip), vehicle: saline with Tween-80 94 % of control

O=C(O)COc1ccc([N+](=O)[O-])cc1
inactive: dose: 100.0 mg/kg/injection, schedule: Q01DX009 (ip), vehicle: saline with Tween-80 101 % of control | [4] 94 % of control | [5] 101 % of control

CN(C)N=Nc1c(-c2cccs2)n[nH]c1C(F)(F)F
inactive: dose: 75.0 mg/kg/injection, schedule: Q01DX001 (ip), vehicle: other 103 % of control | dose: 150.0 mg/kg/injection, schedule: Q01DX001 (ip), vehicle: other 103 % of control | dose: 300.0 mg/kg/injection, schedule: Q01DX001 (ip), vehicle: other 105 % of control

Cc1cccc(-n2c(N)cc(=O)[nH]c2=S)n1
inactive: dose: 100.0 mg/kg/injection, schedule: Q04DX003 (ip), vehicle: saline with Tween-80 96 % of control

COc1ccc(NC(=O)Oc2ccc(SC)cc2)cc1
inactive: [1] 98 % of control | [2] 102 % of control | [3] 98 % of control

C/C=C(\NC1CCCCC1)C(=O)c1ccccc1
inactive: dose: 100.0 mg/kg/injection, schedule: Q01DX009 (ip), vehicle: Klucel (hydroxypropylcellulose) (HPC) 100 % of control | dose: 100.0 mg/kg/injection, schedule: Q04DX003 (ip), vehicle: Klucel (hydroxypropylcellulose) (HPC) 101 % of control | dose: 200.0 mg/kg/injection, schedule: Q01DX009 (ip), vehicle: Klucel (hydroxypropylcellulose) (HPC) 109 % of control | dose: 200.0 mg/kg/injection, schedule: Q04DX003 (ip), vehicle: Klucel (hydroxypropylcellulose) (HPC) 100 % of control | dose: 400.0 mg/kg/injection, schedule: Q04DX003 (ip), vehicle: Klucel (hydroxypropylcellulose) (HPC) 97 % of control

O=C1CSC(=S)N1C1OC(CO)C(O)C1O (stereo unspecified)
inactive: dose: 12.5 mg/kg/injection, schedule: Q01DX005 (ip), vehicle: distilled water + Tween-80 111 % of control | dose: 25.0 mg/kg/injection, schedule: Q01DX005 (ip), vehicle: distilled water + Tween-80 102 % of control | dose: 50.0 mg/kg/injection, schedule: Q01DX005 (ip), vehicle: distilled water + Tween-80 102 % of control | dose: 100.0 mg/kg/injection, schedule: Q01DX005 (ip), vehicle: distilled water + Tween-80 101 % of control | dose: 200.0 mg/kg/injection, schedule: Q01DX005 (ip), vehicle: distilled water + Tween-80 92 % of control

Nc1nc(=O)n(C2OC(CO)C(O)C2O)c2sccc12 (stereo unspecified)
inactive: dose: 25.0 mg/kg/injection, schedule: Q01DX005 (ip), vehicle: water 94 % of control | dose: 50.0 mg/kg/injection, schedule: Q01DX005 (ip), vehicle: water 94 % of control | dose: 100.0 mg/kg/injection, schedule: Q01DX005 (ip), vehicle: water 89 % of control | dose: 200.0 mg/kg/injection, schedule: Q01DX005 (ip), vehicle: water 89 % of control

CCCC1CC[N-]CC1.CCCC1CC[N-]CC1.[Cl][Pt+2]([Cl])([Cl])[Cl]
inactive: dose: 12.5 mg/kg/injection, schedule: Q01DX009 (ip), vehicle: saline sonified 114 % of control | dose: 25.0 mg/kg/injection, schedule: Q04DX003 (ip), vehicle: saline with Tween-80 98 % of control
